“Also recorded” adds a separate entry of the source. Read-outs that look alike come from different tables or passages of the source. Values belong to the compound of their own block, whether it stands above or below them.
Experiments:
mouse peritoneal cells = experiment: Cytotoxicity assay (WST-1), viability of mouse peritoneal cells; format: cell-based; details: 10 µM compound, primary murine macrophages
Protocol: (§1) The tested compounds were dissolved in dimethyl sulfoxide (DMSO) to make stock solutions at a concentration of 50 mM, and then stored at −20 °C. Their biological activities were screened using a final concentration of 10 µM.
(§2) The animals were killed by cervical dislocation and injected intraperitoneally with 8 mL of sterile saline. Pooled peritoneal cells collected from the mice (n = 4–6 in individual experiments) were washed and re-suspended in a culture medium. The cell suspension was seeded onto 96-well round-bottom microplates (Costar, Corning, NY, USA). Final samples were supplemented to 100 µL volumes, containing 1–2 × 10^6 cells per well, depending on the assay. Cultures were maintained at 37 °C, 5% CO2 in a humidified incubator (Heraeus Holding GmbH, Hanau, Germany).
(§3) The viability of mouse peritoneal cells was determined using a colorimetric assay based on the cleavage of tetrazolium salt WST-1 by mitochondrial dehydrogenases in viable cells (Roche Diagnostics, Mannheim, Germany). The cells (1 × 10^6/mL) were cultured as described above. The viability of primary murine macrophages was tested in the presence of 10 µM of the respective test substance for […]. After the first 24 h of cultivation, WST-1 was added (10 µL), and the cells were kept in a Heraeus incubator at 37 °C for an additional 3 h. Triton X-100 (1%) was used as a common reference in the cytotoxicity assay. Optical density was evaluated at wavelengths of 450–690 nm.

[1] = test system: NO production by mouse peritoneal cells; experiment: Nitric oxide assay (Griess), LPS + IFN-γ-activated mouse peritoneal cells; format: cell-based; details: 24 h; for Effect on IFN-γ + LPS-activated NO production (in words): 10 µM screening, mouse peritoneal cells; for IC50: (LPS + IFN-γ)-activated mouse peritoneal cells, concentrations 0.01–50.0 μM tested, read-out: Inhibition of nitric oxide production, IC50
Protocol: as §1, with “µM. […] This concentration of DMSO was devoid of any effects in biological assays.” for “µM.”
as §2, with “Germany). The complete RPMI-1640 culture medium (Sigma-Aldrich, St. Louis, MO, USA) contained 10% heat-inactivated fetal bovine serum, 2 mM L-glutamine, 50 µg/mL gentamicin, and 5 × 10^−5 M 2-mercaptoethanol (all Sigma-Aldrich).” for “Germany).”
High-output NO production was induced by a mixture of lipopolysaccharide (LPS from E. coli 0111:B4, 0.1 ng/mL; Sigma) and murine recombinant interferon-γ (IFN-γ, 5 ng/mL; R&D Systems, Minneapolis, MN, USA) in mouse peritoneal cells (2 × 10^6/mL). The tested compounds were applied concomitantly with both priming stimuli, and peritoneal macrophages were cultured for 24 h. The concentration of nitrites in the supernatants of the cell cultures was taken as a measure of NO production. It was detected in individual cell-free samples (50 µL) incubated for 5 min at ambient temperature with an aliquot of Griess reagent (1% sulfanilamide/0.1% naphtylendiamine/2.5% H3PO4). Absorbance at 540 nm was recorded using a microplate spectrophotometer (Tecan, Grödig, Austria). A nitrite calibration curve was used to convert absorbance values to µM of nitrite.

[2] = test system: production of PGE2 by murine peritoneal cells; experiment: Prostaglandin E2 assay (ELISA), LPS-stimulated murine peritoneal cells; format: cell-based, mouse; details: 10 ng/mL LPS, 6 h, murine peritoneal cells 2.0 × 10^6/mL
Protocol: as §2, with “Germany). The complete RPMI-1640 culture medium (Sigma-Aldrich, St. Louis, MO, USA) contained 10% heat-inactivated fetal bovine serum, 2 mM L-glutamine, 50 µg/mL gentamicin, and 5 × 10^−5 M 2-mercaptoethanol (all Sigma-Aldrich).” for “Germany).”
(§4) The concentration of PGE2 was determined in the supernatants of cells cultured (2 × 10^6/mL) after the addition of 10 ng/mL LPS for an interval of 6 h. The levels of cytokines TNF-α, IL-1β, IL-6, and IL-10, and the chemokine RANTES were determined in the supernatants of cells cultured (2 × 10^6/mL) in the presence of 1 µg/mL LPS for an interval 21 h. The extent of PGE2 release and cytokine secretion was determined using enzyme-linked immune-absorbent assay (ELISA) kits according to the manufacturer’s instructions (R&D Systems, Minneapolis, MN, USA).

[3] = test system: secretion of cytokines TNF-α, IL-1β, IL-6, IL-10 and chemokine RANTES by murine peritoneal cells; experiment: Cytokine assays (ELISA), LPS-stimulated murine peritoneal cells; format: cell-based, mouse; details: 1 µg/mL LPS, 21 h, IL-6, IL-10, RANTES
Protocol: as §2, with “Germany). The complete RPMI-1640 culture medium (Sigma-Aldrich, St. Louis, MO, USA) contained 10% heat-inactivated fetal bovine serum, 2 mM L-glutamine, 50 µg/mL gentamicin, and 5 × 10^−5 M 2-mercaptoethanol (all Sigma-Aldrich).” for “Germany).”
as §4

RAW264.7 macrophages = details: cited from earlier work
[4] = Cytotoxicity assay (WST-1), viability of mouse peritoneal cells; format: cell-based; details: 10 µM compound, mouse peritoneal cells 1.0 × 10^6/mL, 24 h, read-out: Cell viability (O.D.) relative to untreated controls; for viability at 24 h, 10 µM: primary mouse peritoneal cells (macrophages)
Protocol: as §1, §2, §3

[5] = test system: polymorphonuclear lymphocytes; design: method as in PMID 30653318; details: cited from earlier work

Compound: C=C1C[C@@H](O)[C@@H]2[C@H](OC(=O)[C@H]2C)[C@H]2[C@H](C)C(=O)C[C@@H]12 [Compound 1, 8-epiisoamberboin]
Cytotoxicity / effect on cell viability (in words) (mouse peritoneal cells): without any suppression of cell viability | NO production relative to controls stimulated with IFN-γ + LPS ([1]; 10 µM compound, mouse peritoneal cells 2.0 × 10^6/mL): about 25% | Effect on IFN-γ + LPS-activated NO production (in words) [1]: significant NO-inhibitory effect | IC50 [1]: 23.8 µM

Compound: CC1=CC(=O)C2=C(C)C[C@H](O)[C@@H]3[C@H](OC(=O)[C@H]3C)[C@@H]12 [Compound 3, deacetylmatricarin]
IC50 [1]: > 100 µM

Compound: CC1=C2C(=O)C=C(CO)[C@@H]2[C@H]2OC(=O)[C@@H](C)[C@@H]2[C@@H](O)C1 [Compound 4, 11β,13-dihydrolactucin]
IC50 [1]: > 100 µM

Compound: C=C1C(O)CC2C(C)C(=O)OC2C2C(=C)C(OC3OC(CO)C(O)C(O)C3O)CC12 (stereo not shown) [Compound 8, ixerin F]
IC50 [1]: > 100 µM

Compound: CC1=CC(=O)C2=C(C)CCC3C(OC(=O)C3(C)OC3OC(CO)C(O)C(O)C3O)C12 (stereo not drawn) [Compound 9, 11β-hydroxyleukodin glucoside]
IC50 [1]: > 100 µM

Compound: CC1=CC(=O)C2=C(C)CC(OC3OC(CO)C(O)C(O)C3O)C3C(OC(=O)C3(C)O)C12 (stereo not drawn) [Compound 10, 11β-hydroxydeacetylmatricarin glucoside]
IC50 [1]: > 100 µM

Compound: C=C(CO)C(=O)O[C@H]1CC(=C)[C@@H]2C[C@H](O)C(=C)[C@@H]2[C@H]2OC(=O)C(=C)[C@@H]21 [Compound 14, cynaropicrin]
viability at 24 h, 10 µM [4]: ~50% | Cytotoxicity / effect on cell viability (in words) (mouse peritoneal cells): cytotoxic; also recorded: remarkable cytotoxicity | IC50 [1]: 9.87 µM

Compound: C=C1C(=O)O[C@@H]2C[C@@H](C)[C@@H]3C=CC(=O)[C@@]3(C)[C@@H](O)[C@H]12 [Compound 15, helenalin]
IC50 [1]: 0.74 µM

Compound: C=C1C(=O)O[C@@H]2/C=C(\C)CC/C=C(\C)CC[C@@H]12 [Compound 16, costunolide]
viability at 24 h, 10 µM [4]: ~50% | Cytotoxicity / effect on cell viability (in words) (mouse peritoneal cells): moderate toxicity; also recorded: remarkable cytotoxicity | IC50 [1]: 3.2 µM

Compound: C=C1C(=O)O[C@@H]2/C=C(\C)CC/C=C(\C)C[C@@H](OC(=O)/C(=C/CO)CO)[C@@H]12 [Compound 18, eupatoriopicrin]
viability at 10 µM [4]: ~10% | Cytotoxicity / effect on cell viability (in words) (mouse peritoneal cells): highly toxic; also recorded: remarkable cytotoxicity | IC50 [1]: 1.65 µM | Concentration up to which not toxic [5]: ≤ 2500 nM

Compound: C=C1C(=O)OC2C1CC(O)C(C)=CCCC1(C)OC21 (stereo not shown) [Compound 20, 9-hydroxyparthenolide]
viability at 10 µM [4]: 77 ± 5.09% | Effect on IFN-γ + LPS-activated NO production (in words) [1]: substantially decreased the production of NO | IC50 [1]: 5.64 µM

Now from value to compound, other results behind:

IC50 [1]: > 100 µM
Compound: C=C1C[C@@H](O)[C@@H]2[C@H](OC(=O)[C@H]2C)[C@H]2[C@H](C)[C@@H](O)C[C@@H]12 [Compound 2, 8-epiisolippidiol]

IC50 [1]: > 100 µM
Compound: C=C1CC(O)C2C(C)C(=O)OC2C2C1CC(OC1OC(CO)C(O)C(O)C1O)C2C (stereo not shown) [Compound 5, 4,8-diepiisolippidiol glucoside]

IC50 [1]: > 100 µM
Compound: CC1=CC(=O)C2=C(C)CC(OC3OC(CO)C(O)C(O)C3O)C3C(C)C(=O)OC3C12 (stereo not shown) [Compound 6, deacetylmatricarin glucoside]

IC50 [1]: > 100 µM
Compound: CC1=C2C(=O)C=C(COC3OC(CO)C(O)C(O)C3O)C2C2OC(=O)C(C)C2CC1 (stereo not shown) [Compound 7, crepidiaside B]

IC50 [1]: > 100 µM
Compound: C=C1CC(O)C2C(=C)C(=O)OC2C2C1CC(OC1OC(CO)C(O)C(O)C1O)C2C (stereo not shown) [Compound 11, 11,13-dehydro-8-epiisolippidiol glucoside]

IC50 [1]: > 100 µM
Compound: C=C1C(=O)OC2C1CCC(C)(O)C1CC(OC3OC(CO)C(O)C(O)C3O)C(=C)C21 (stereo not shown) [Compound 12, ixerin D]

IC50 [1]: 2.81 µM
Compound: C=C1C(=O)O[C@@H]2[C@H]3C(CO)=CC(=O)C3=C(C)CC[C@@H]12 [Compound 13, 8-deoxylactucin]
Cytotoxicity / effect on cell viability (in words) (mouse peritoneal cells): without any suppression of cell viability | Effect on IFN-γ + LPS-activated NO production (in words) [1]: significant NO-inhibitory effect | Effect on immune-activated production of PGE2 (in words) [2]: did not interfere | Effect on secretion of cytokines (in words) [3]: did not interfere | IC50 (RAW264.7 macrophages; RAW264.7 macrophages, read-out: Inhibition of nitric oxide production, IC50): 13 µM

IC50 [1]: 2.79 µM
Compound: C=C1C(=O)O[C@H]2[C@H]1CC/C(C)=C/CC[C@@]1(C)O[C@@H]21 [Compound 19, parthenolide]
viability at 24 h, 10 µM [4]: 81.1 ± 6.34% | Effect on IFN-γ + LPS-activated NO production (in words) [1]: substantially decreased the production of NO

IC50 [1]: 90.2 µM
Compound: CC=C(C)C(=O)OC1(C)C(=O)OC2C=C(C)CCC=C(C)CCC(OC(C)=O)C21 (stereo not shown) [Compound 21, laserolide]
Cytotoxicity / effect on cell viability (in words) (mouse peritoneal cells): did not show any cytotoxicity

IC50 [1]: 4.38 µM
Compound: eupatolide [Compound 17]
Effect on IFN-γ + LPS-activated NO production (in words) [1]: significant NO-inhibitory effect | IC50 (RAW264.7 macrophages; murine macrophage line RAW264.7, read-out: Inhibitory potency against NO production, concentration range): 1.54 to 6.43 µM
